Experimental data from patent publication US7855292B2, “Sulfonamide compounds” (Janssen Pharmaceutica NV, priority 2004, dated 2010).

Tests used:
CCK-1 receptor = molecular target: T1, CCK-1 receptor (Homo sapiens, UniProt P32238); experiment: CCK1 binding assay ([125I]-BH-CCK-8S displacement, CHO-K1 membranes); details: membranes of CHO-K1 cells stably transfected with the CCK-1 receptor; 20 pM [125I]-BH-CCK-8S; 0.3 μM PD-134,308 present; 60 min at 21±3° C.; read-out: CCK1 pKi (converted)
T1 construct: expressed in transfected cells; host or cells: CHO-K1
T1 sequence (P32238 1-428): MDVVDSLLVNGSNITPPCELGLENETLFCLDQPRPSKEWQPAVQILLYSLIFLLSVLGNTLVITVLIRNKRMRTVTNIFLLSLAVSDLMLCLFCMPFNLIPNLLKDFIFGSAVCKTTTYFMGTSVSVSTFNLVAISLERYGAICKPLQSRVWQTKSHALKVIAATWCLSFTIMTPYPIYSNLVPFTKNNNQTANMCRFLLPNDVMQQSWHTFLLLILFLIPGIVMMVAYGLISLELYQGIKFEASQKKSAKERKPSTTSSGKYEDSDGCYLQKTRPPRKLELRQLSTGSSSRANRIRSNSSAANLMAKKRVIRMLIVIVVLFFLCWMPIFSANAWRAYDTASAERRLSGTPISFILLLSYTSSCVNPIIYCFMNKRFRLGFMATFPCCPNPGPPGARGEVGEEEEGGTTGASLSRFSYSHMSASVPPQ
How it was run: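 Membranes from CHO-K1 cells stably expressing CCK-1 incubated 1 h at 21±3° C with 20 pM [125I]-BH-CCK-8S in HEPES buffer pH 7.2 containing 0.3 μM PD-134,308 to block CCK-2. Bound radioactivity read by gamma counting after filtration. pKi derived via Cheng-Prusoff, with specific binding defined using 2-NAP.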

CCK2 receptor = molecular target: T2, CCK2 receptor (Homo sapiens, UniProt P32239); experiment: CCK2 binding assay ([125I]-BH-CCK-8S displacement, HEKZFP membranes); details: membranes of doxycycline-induced HEKZFP cells; 20 pM [125I]-BH-CCK-8S; 60 min at 21±3° C.; read-out: CCK2 pKi (converted)
T2 construct: analyzed for ZFP expression as well as CCK2R induction upon addition of doxycycline to the culture medium; endogenous in cells
T2 sequence (P32239 1-447): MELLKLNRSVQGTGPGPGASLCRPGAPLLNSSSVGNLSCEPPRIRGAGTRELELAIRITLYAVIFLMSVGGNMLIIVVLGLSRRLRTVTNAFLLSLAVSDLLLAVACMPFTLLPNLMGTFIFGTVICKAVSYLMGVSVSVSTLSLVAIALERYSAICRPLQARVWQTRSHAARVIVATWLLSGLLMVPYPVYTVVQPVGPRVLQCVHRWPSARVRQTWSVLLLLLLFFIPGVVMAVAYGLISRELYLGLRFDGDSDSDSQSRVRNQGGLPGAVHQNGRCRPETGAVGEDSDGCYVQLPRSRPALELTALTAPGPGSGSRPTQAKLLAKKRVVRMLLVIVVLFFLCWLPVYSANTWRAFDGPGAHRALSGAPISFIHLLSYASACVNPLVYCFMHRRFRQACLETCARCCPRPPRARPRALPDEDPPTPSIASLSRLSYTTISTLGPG

SMILES	Ki (CCK-1 receptor) [nM]	Ki (CCK2 receptor) [nM]
COC(=O)[C@H](Cc1csc2ccccc12)NC(=O)c1ccc(Cl)cc1NS(=O)(=O)c1cccc2nccnc12 [Example 65, (S)-3-Benzo[b]thiophen-3-yl-2-[4-chloro-2-(quinoxaline-5-sulfonylamino)-benzoylamino]-propionic acid methyl ester]	316	794
CC(CNC(=O)c1ccc(Cl)cc1NS(=O)(=O)c1cccc2nccnc12)c1ccc(Cl)c(Cl)c1 (racemic) [Example 59, (±)-4-Chloro-N-[2-(3,4-dichloro-phenyl)-propyl]-2-(quinoxaline-5-sulfonylamino)-benzamide]	79.4	794
O=C(N[C@@H](Cc1ccc(Cl)cc1)C(=O)O)c1ccc(I)cc1NS(=O)(=O)c1cccc2nsnc12 [Example 33, 2-[2-(Benzo[1,2,5]thiadiazole-4-sulfonylamino)-4-iodo-benzoylamino]-3-(4-chloro-phenyl)-propionic acid]	158	39.8
C[C@H](CN1C(=O)c2cc(Br)cc(NS(=O)(=O)c3cccc4nsnc34)c2C1=O)c1ccccc1 [Example 13, (S)-Benzo[1,2,5]thiadiazole-4-sulfonic acid [6-bromo-1,3-dioxo-2-(2-phenyl-propyl)-2,3-dihydro-1H-isoindol-4-yl]-amide]	1260	631
CC(CNC(=O)c1cc(Cl)ccc1NS(=O)(=O)c1cccc2nsnc12)c1ccc(Cl)c(Cl)c1 (racemic) [Example 16, (±)-2-(Benzo[1,2,5]thiadiazole-4-sulfonylamino)-5-chloro-N-[2-(3,4-dichloro-phenyl)-propyl]-benzamide]	63.1	631
CC(CNC(=O)c1ccc(Br)cc1NS(=O)(=O)c1c(F)cccc1F)c1ccc(Cl)c(Cl)c1 (centres unmarked) [Example 30, 4-Bromo-N-[2-(3,4-dichloro-phenyl)-propyl]-2-(2,6-difluoro-benzenesulfonylamino)-benzamide]	63.1	2510
COC(=O)C(NC(=O)c1ccc(Cl)cc1NS(=O)(=O)c1cccc2nccnc12)C(=O)c1ccc(Cl)c(Cl)c1 (racemic) [Example 18, (±)-2-[4-Chloro-2-(quinoxaline-5-sulfonylamino)-benzoylamino]-3-(3,4-dichloro-phenyl)-3-oxo-propionic acid methyl ester]	316	1580
O=C(N[C@@H](Cc1ccc(Cl)cc1Cl)C(=O)O)c1ccc(Br)cc1NS(=O)(=O)c1c(F)cccc1F [Example 41, 2-[4-Bromo-2-(2,6-difluoro-benzenesulfonylamino)-benzoylamino]-3-(2,4-dichloro-phenyl)-propionic acid]	631	50.1
CC(CNC(=O)c1ccc(Br)cc1NS(=O)(=O)c1c(F)cccc1F)c1ccc(Cl)cc1 (centres unmarked) [Example 24, 4-Bromo-N-[2-(4-chloro-phenyl)-propyl]-2-(2,6-difluoro-benzenesulfonylamino)-benzamide]	100	1260
O=C(N[C@@H](Cc1ccccc1)C(=O)O)c1cc(Cl)c(Cl)cc1NS(=O)(=O)c1cccc2nsnc12 [Example 3, 2-[2-(Benzo[1,2,5]thiadiazole-4-sulfonylamino)-4,5-dichloro-benzoylamino]-3-phenyl-propionic acid]	1000	39.8
CC(CNC(=O)c1ccc(Br)cc1NS(=O)(=O)c1cccc2nsnc12)c1ccc(Cl)cc1 (centres unmarked) [Example 21, 2-(Benzo[1,2,5]thiadiazole-4-sulfonylamino)-4-bromo-N-[2-(4-chloro-phenyl)-propyl]-benzamide]	126	1000
O=C(N[C@@H](Cc1ccc(Cl)c(Cl)c1)C(=O)O)c1ccc(I)cc1NS(=O)(=O)c1c(F)cccc1F [Example 32, 3-(3,4-Dichloro-phenyl)-2-[2-(2,6-difluoro-benzenesulfonylamino)-4-iodo-benzoylamino]-propionic acid]	398	100

Now from value to compound:

Ki (CCK-1 receptor) [nM]	Ki (CCK2 receptor) [nM]	SMILES
3980	31.6	O=C(N[C@@H](Cc1cccc(Cl)c1)C(=O)O)c1ccc(Cl)cc1NS(=O)(=O)c1cccc2nccnc12 [Example 78, (S)-3-(3-Chloro-phenyl)-2-[4-chloro-2-(quinoxaline-5-sulfonylamino)-benzoylamino]-propionic acid]
316	631	COC(=O)[C@H](Cc1ccc(F)c(Br)c1)NC(=O)c1ccc(I)cc1NS(=O)(=O)c1c(F)cccc1F [Example 125, (S)-3-(3-Bromo-4-fluoro-phenyl)-2-[2-(2,6-difluoro-benzenesulfonylamino)-4-iodo-benzoylamino]-propionic acid methyl ester]
251	15.8	O=C(N[C@@H](Cc1ccc(Cl)c(Cl)c1)C(=O)O)c1ccc(I)cc1NS(=O)(=O)c1cccc2nccnc12 [Example 132, (S)-3-(3,4-Dichloro-phenyl)-2-[4-iodo-2-(quinoxaline-5-sulfonylamino)-benzoylamino]-propionic acid]
501	20	O=C(N[C@@H](Cc1cc(F)c(Cl)cc1Cl)C(=O)O)c1ccc(I)cc1NS(=O)(=O)c1cccc2nsnc12 [Example 134, (S)-2-[2-(Benzo[1,2,5]thiadiazole-4-sulfonylamino)-4-iodo-benzoylamino]-3-(2,4-dichloro-5-fluoro-phenyl)-propionic acid]
79.4	1000	O=C(N[C@H](Cc1ccc(Cl)c(Cl)c1)C(=O)O)c1ccc(Cl)cc1NS(=O)(=O)c1c(F)cccc1F [Example 120, (R)-2-[4-Chloro-2-(2,6-difluoro-benzenesulfonylamino)-benzoylamino]-3-(3,4-dichloro-phenyl)-propionic acid]
63.1	31.6	O=C(N[C@@H](Cc1ccc(Cl)c(I)c1)C(=O)O)c1ccc(I)cc1NS(=O)(=O)c1cccc2nsnc12 [Example 92, (S)-2-[2-(Benzo[1,2,5]thiadiazole-4-sulfonylamino)-4-iodo-benzoylamino]-3-(4-chloro-3-iodo-phenyl)-propionic acid]
2000	501	O=C(N[C@@H](Cc1csc2ccccc12)C(=O)O)c1ccc(Cl)cc1NS(=O)(=O)c1cccc2nccnc12 [Example 66, (S)-3-Benzo[b]thiophen-3-yl-2-[4-chloro-2-(quinoxaline-5-sulfonylamino)-benzoylamino]-propionic acid]
79.4	200	COC(=O)[C@H](Cc1ccc(Cl)c(I)c1)NC(=O)c1ccc(I)cc1NS(=O)(=O)c1cccc2nccnc12 [Example 137, (S)-3-(4-Chloro-3-iodo-phenyl)-2-[4-iodo-2-(quinoxaline-5-sulfonylamino)-benzoylamino]-propionic acid methyl ester]
200	251	COC(=O)[C@H](Cc1ccc(Cl)cc1)NC(=O)c1cc(Cl)c(Cl)cc1NS(=O)(=O)c1cccc2nsnc12 [Example 67, (S)-2-[2-(Benzo[1,2,5]thiadiazole-4-sulfonylamino)-4,5-dichloro-benzoylamino]-3-(4-chloro-phenyl)-propionic acid methyl ester]
794	126	COC(=O)[C@H](Cc1ccc(F)c(Br)c1)NC(=O)c1ccc(Br)cc1NS(=O)(=O)c1cccc2nccnc12 [Example 151, (S)-3-(3-Bromo-4-fluoro-phenyl)-2-[4-bromo-2-(quinoxaline-5-sulfonylamino)-benzoylamino]-propionic acid methyl ester]
